{"source": "patent US11851642B2", "about": "“Test device” (HITACHI HIGH-TECH CORPORATION, priority 2015, dated 2023)", "assay_type_in_all_cases": "cell-based", "key": {"E coli (ATCC25922)": {"test_system": "E coli (ATCC25922)", "assay": "antimicrobial susceptibility testing by microscopic observation (binarized images)", "settings": "ampicillin 2 μg/mL in culture fluid; 180 minutes from the start of culture (FIG. 5(b))", "method": "In addition, when an examination is performed by using the bacteriological testing instrument 1, culture is performed by mixing a bacterial suspension prepared from a specimen with a culture fluid in the culture plate (for example, a culture plate which has 96 wells in total is used) 18. In order to perform the antimicrobial susceptibility testing, antimicrobial agents different from each other are set so as to be respectively contained in the culture fluids in each of the wells in particular concentrations. An order of the culturing is as follows. First, the bacterial suspension is introduced into the culture plate 18. Then, the bacterial suspension is in a state of being mixed with the culture fluid which is included in each of the wells, and the temperature controller 16 is set to a temperature of approximately 35° C. […] Then, in the bacteriological testing instrument 1, while performing the incubation, the bacteria included in each of the wells can be monitored through the microscopic observation optical system. […] In addition, similar to the bacteriological testing instrument in the related art, the turbidity of each of the wells may be measured through the turbidity measurement optical system while incubating the culture plate 18. The measured result may be compared with the monitored result of the microscopic observation optical system. […]"}, "[1]": {"test_system": "E coli separated from a patient A", "assay": "antimicrobial susceptibility testing by microscopic observation, areas of the bacteria", "method": "(§1) In addition, when an examination is performed by using the bacteriological testing instrument 1, culture is performed by mixing a bacterial suspension prepared from a specimen with a culture fluid in the culture plate (for example, a culture plate which has 96 wells in total is used) 18. In order to perform the antimicrobial susceptibility testing, antimicrobial agents different from each other are set so as to be respectively contained in the culture fluids in each of the wells in particular concentrations. An order of the culturing is as follows. First, the bacterial suspension is introduced into the culture plate 18. Then, the bacterial suspension is in a state of being mixed with the culture fluid which is included in each of the wells, and the temperature controller 16 is set to a temperature of approximately 35° C. Furthermore, culture is performed by performing incubation such that the temperature of each of the wells in the culture plate 18 reaches the set temperature. Then, in the bacteriological testing instrument 1, while performing the incubation, the bacteria included in each of the wells can be monitored through the microscopic observation optical system. The microscopic observation may be performed for a set period of time from the start of the incubation till the end thereof by continuously monitoring the state of bacterial proliferation. In addition, the monitoring may be performed at the set time after setting appropriate time, and the monitoring result can be compared with the monitoring result when the incubation is started. In addition, similar to the bacteriological testing instrument in the related art, the turbidity of each of the wells may be measured through the turbidity measurement optical system while incubating the culture plate 18. The measured result may be compared with the monitored result of the microscopic observation optical system.\n(§2) The processor determines whether the bacteria proliferate or the proliferation is interrupted under the corresponding culture condition, based on the microscopic image to which the above-described necessary treatments are performed. The determination whether or not the proliferation is performed, is performed by comparing with the information obtained based on the images at different times in the same container. More specifically, based on the image after the treatment illustrated in FIGS. 4 to 6, for example, the areas of the bacteria are calculated, and it is determined whether or not the proliferation is performed by creating the graph as illustrated in FIG. 12.\n(§3) The processor combines the information on whether or not the proliferation is performed under the culture condition with a combination of a certain concentration of the antimicrobial agent, and determines the minimum concentration of the antimicrobial agent (MIC, minimum inhibitory concentration) which becomes interruption of proliferation. Here, the MIC determination is performed with respect to all of the wells provided on the culture plate 21. For example, there are 96 wells on the culture plate 21, and various types of antimicrobial agents having different concentrations (for example, 0 μg/mL, 0.5 μg/mL, 1 μg/mL, 2.0 μg/mL, 4.0 μg/mL, 8.0 μg/mL, 16.0 μg/mL, . . . ) enter the wells. Therefore, the minimum concentration (MIC) of the antimicrobial agent which becomes interruption of proliferation can be ascertained.\n(§4) The processor further determines whether the bacteria of the examination target is sensitive (S), resistant (R), and intermediate (I) with respect to the corresponding antimicrobial agent by comparing with a break point (a break point of Clinical and Laboratory Standards Institute (CLSI), a break point of Japanese Society of Chemotherapy, or a break point of EUCAST) which is stored as reference data. […]"}, "[2]": {"test_system": "E coli separated from a patient B", "assay": "antimicrobial susceptibility testing by microscopic observation, areas of the bacteria", "method": "as §1, §2, §3, §4"}, "[3]": {"test_system": "Staphylococcus aureus separated from the patient A", "assay": "antimicrobial susceptibility testing by microscopic observation, areas of the bacteria", "settings": "for antimicrobial susceptibility determination (comparison with the break points): FIG. 20(a)", "excerpt": "as §1, with “In” for “In addition, when an examination is performed by using the bacteriological testing instrument 1, culture is performed by mixing a bacterial suspension prepared from a specimen with a culture fluid in the culture plate (for example, a culture plate which has 96 wells in total is used) 18. In”\nas §2\nas §3, with “wells.” for “wells. Therefore, the minimum concentration (MIC) of the antimicrobial agent which becomes interruption of proliferation can be ascertained.”"}, "[4]": {"test_system": "Staphylococcus aureus separated from the patient B", "assay": "antimicrobial susceptibility testing by microscopic observation, areas of the bacteria", "settings": "for antimicrobial susceptibility determination (comparison with the break points): FIG. 20(b)", "excerpt": "as §1, with “In” for “In addition, when an examination is performed by using the bacteriological testing instrument 1, culture is performed by mixing a bacterial suspension prepared from a specimen with a culture fluid in the culture plate (for example, a culture plate which has 96 wells in total is used) 18. In”\nas §2\nas §3, with “wells.” for “wells. Therefore, the minimum concentration (MIC) of the antimicrobial agent which becomes interruption of proliferation can be ascertained.”"}, "[5]": {"test_system": "Enterococcus faecalis (ATCC29212)", "assay": "antimicrobial susceptibility testing by microscopic observation, areas of the bacteria", "design": "key: Waiting is determined, and “W” is displayed; Growth is determined, and “G” is displayed; Inhibit is determined, and “I” is displayed", "method": "In addition, when an examination is performed by using the bacteriological testing instrument 1, culture is performed by mixing a bacterial suspension prepared from a specimen with a culture fluid in the culture plate (for example, a culture plate which has 96 wells in total is used) 18. In order to perform the antimicrobial susceptibility testing, antimicrobial agents different from each other are set so as to be respectively contained in the culture fluids in each of the wells in particular concentrations. An order of the culturing is as follows. First, the bacterial suspension is introduced into the culture plate 18. Then, the bacterial suspension is in a state of being mixed with the culture fluid which is included in each of the wells, and the temperature controller 16 is set to a temperature of approximately 35° C. Furthermore, culture is performed by performing incubation such that the temperature of each of the wells in the culture plate 18 reaches the set temperature. Then, in the bacteriological testing instrument 1, while performing the incubation, the bacteria included in each of the wells can be monitored through the microscopic observation optical system. […] In addition, similar to the bacteriological testing instrument in the related art, the turbidity of each of the wells may be measured through the turbidity measurement optical system while incubating the culture plate 18. The measured result may be compared with the monitored result of the microscopic observation optical system.\nas §2, with “The determination whether or not the proliferation is performed, is performed by comparing with the information obtained based on the images at different times in the same container.” left out, “12. […]” for “12.”"}, "Pseudomonas aeruginosa": {"test_system": "Pseudomonas aeruginosa", "assay": "antimicrobial susceptibility testing by microscopic observation, circularity of the bacteria", "method": "as §1\nFIG. 22 is a view (graph) illustrating a result obtained by antimicrobial susceptibility testing with respect to meropenem of Pseudomonas aeruginosa. The graph acquires the circularity of the Pseudomonas aeruginosa in the image measured through the microscopic observation, and illustrates the time-dependent change thereof. The plurality of Pseudomonas aeruginosa are observed in one image, but the circularity of each of the Pseudomonas aeruginosa is acquired, and the value obtained by calculating an average value of the bacteria in the image is plotted. In addition, the circularity is a value calculated by 4π×(area)/(perimeter length)^2. When the bacteria have a completely circular shape, 4π×πr^2/(2πr) ^2=1 is satisfied, and when the bacteria is deviated from a completely circular shape, the perimeter length increases, and thus, the circularity value decreases.\nIn the graph, in a case where there is no the antimicrobial agent to be plotted by a “rhomboidal (diamond) shape”, the circularity of the Pseudomonas aeruginosa was hardly changed from the start of culture. […] In addition, when the concentration of meropenem of which the decrease in circularity is stopped is 0.5 μg/mL or greater, it is determined that the Pseudomonas aeruginosa becomes extinct. In a case where the bacteria are not extinct, the shape of the bacteria changes. […] The exemplary embodiment is an example in which the time-dependent change of the circularity of the bacteria is plotted instead of plotting the time-dependent change of the areas of the bacteria. However, in this manner, by plotting the time-dependent change of the feature values that become an index for indicating a degree of proliferation or growth of the bacteria in addition to the bacterial numbers or the areas of the bacteria, not only the minimum inhibitory concentration (MIC) of the bacteria but also the minimum bactericidal concentration (MBC) can be determined."}}, "note": "“And” between values parts separate entries of the source, which are not always exact repeats. Equal values may be shown once.", "data": [{"smiles": "CC1(C)S[C@@H]2[C@H](NC(=O)[C@H](N)c3ccccc3)C(=O)N2[C@H]1C(=O)O", "note": "[ampicillin]", "values": [{"measurement": "state of the bacteria in the microscopic observation image", "setting": "E coli (ATCC25922)", "result": "elongated"}, {"measurement": "sensitivity determination (comparison with the break points)", "setting": "[1]; FIG. 17(a)", "result": "durability"}, {"measurement": "proliferation determination result (MIC determination result)", "setting": "[1]; all ampicillin conditions (FIG. 16(a))", "result": "determined to proliferate"}, {"measurement": "time-dependent change of the areas of the bacteria (standardized by the areas at start of culture)", "setting": "[1]; ampicillin 512 μg/mL, compared to no antimicrobial agent (FIG. 15(a))", "result": "slightly increases"}, {"measurement": "concentration at which the proliferation is interrupted (MIC determination result)", "setting": "[2]; after 180 minutes from the start of culture (FIG. 16(b))", "result": "≥ 8", "unit": "µg/mL"}, {"measurement": "time-dependent change of the areas of the bacteria (standardized by the areas at start of culture)", "setting": "[2]; ampicillin 4 μg/mL (FIG. 15(b))", "result": "increase tends to be stopped"}, {"measurement": "time-dependent change of the areas of the bacteria (standardized by the areas at start of culture)", "setting": "[2]; ampicillin 8 μg/mL or greater (FIG. 15(b))", "result": "area tends to decrease"}, {"measurement": "antimicrobial susceptibility determination (comparison with the break points)", "setting": "[3]", "result": "resistance"}, {"measurement": "antimicrobial susceptibility determination (comparison with the break points)", "setting": "[4]", "result": "Intermediate"}]}, {"smiles": "C[C@H]1COc2c(N3CCN(C)CC3)c(F)cc3c(=O)c(C(=O)O)cn1c23", "note": "[levofloxacin]", "values": [{"measurement": "proliferation determination result", "setting": "[5]; levofloxacin 0.5 μg/mL, after 120 minutes (FIG. 13)", "result": "G"}, {"measurement": "proliferation determination result", "setting": "[5]; levofloxacin 1.0 μg/mL, after 150 minutes (FIG. 13)", "result": "I"}, {"measurement": "proliferation determination result", "setting": "[5]; levofloxacin 2.0 μg/mL, after 150 minutes (FIG. 13)", "result": "I"}]}, {"smiles": "CN[C@H](CC(C)C)C(=O)N[C@H]1C(=O)N[C@@H](CC(N)=O)C(=O)N[C@H]2C(=O)N[C@H]3C(=O)N[C@H](C(=O)N[C@H](C(=O)O)c4cc(O)cc(O)c4-c4cc3ccc4O)[C@H](O)c3ccc(c(Cl)c3)Oc3cc2cc(c3O[C@@H]2O[C@H](CO)[C@@H](O)[C@H](O)[C@H]2O[C@H]2C[C@](C)(N)[C@H](O)[C@H](C)O2)Oc2ccc(cc2Cl)[C@H]1O", "note": "[vancomycin]", "values": [{"measurement": "antimicrobial susceptibility determination (comparison with the break points)", "setting": "[3]", "result": "sensitivity"}, {"measurement": "concentration at which the proliferation is performed", "setting": "[3]; images within 300 minutes from the start of culture (FIG. 18, FIG. 19(a))", "result": 0.25, "unit": "µg/mL"}, {"measurement": "antimicrobial susceptibility determination (comparison with the break points)", "setting": "[4]", "result": "Intermediate"}, {"measurement": "concentration at which the proliferation is performed", "setting": "[4]; images within 300 minutes from the start of culture (FIG. 18, FIG. 19(b))", "result": "≤ 0.5", "unit": "µg/mL"}]}, {"smiles": "C[C@@H](O)[C@H]1C(=O)N2C(C(=O)O)=C(S[C@@H]3CN[C@H](C(=O)N(C)C)C3)[C@H](C)[C@H]12", "note": "[meropenem]", "values": [{"measurement": "concentration at which the circularity continues to decrease: bacteria elongated but not become extinct yet", "setting": "Pseudomonas aeruginosa; FIG. 22", "result": "0.125 µg/mL and 0.25 µg/mL"}, {"measurement": "concentration at which the decrease in circularity is stopped: bacteria become extinct (can be estimated as MBC)", "setting": "Pseudomonas aeruginosa; FIG. 22", "result": "≥ 0.5", "unit": "µg/mL"}, {"measurement": "time from the start of culture after which the circularity starts to decrease", "setting": "Pseudomonas aeruginosa; meropenem 0.25 μg/mL, bacteria elongated (FIG. 22)", "result": 90, "unit": "min"}, {"measurement": "time-dependent change of the circularity", "setting": "Pseudomonas aeruginosa; meropenem 0.5 μg/mL (FIG. 22)", "result": "slightly decreases"}, {"measurement": "time-dependent change of the circularity", "setting": "Pseudomonas aeruginosa; meropenem 1.0 μg/mL (FIG. 22)", "result": "slightly decreases"}, {"measurement": "time-dependent change of the circularity", "setting": "Pseudomonas aeruginosa; meropenem 2.0 μg/mL (FIG. 22)", "result": "slightly decreases"}]}]}
